Results published in patent US7659293B2, “α-Amino-N-hydroxy-acetamide derivatives” (Novartis AG, priority 2001, dated 2010).
Where a name gives a salt, the structure may show the parent alone.

Biological target: T1, MMP9 (Gelatinase-B) (Homo sapiens, UniProt P14780)
T1 construct: endogenous in cells; host or cells: THP1 human monocytic leukemia cells, TPA-stimulated; purified from culture medium
Experiment: Assay of MMP9 (fluorogenic peptide)
Type: biochemical
Settings: mean ± SEM of three independent experiments
Description: MMP9 is prepared form the culture medium of THP1 human monocytic leukemia cells treated with TPA. THP1 cells are maintained in a culture of DMEM/F-12 with 10% FCS and stimulated to produce pro-MMP9 with TPA (1 nM) in serum-free medium for 48 h. All purification procedures are carried out at 4° C. The 1 liters of culture medium is concentrated to 100 ml by Centricon (Amicon) and applied to a column (1×8 cm) of gelatin-sepharose (Pharmacia) equilibrated with 50 mM Tris-Cl (pH=8.0), 300 mM NaCl. The fraction containing pro-MMP-9 is eluted with 10% DMSO in 50 mM Tris-Cl (pH=8.0), 300 mM NaCl, then dialyzed against 50 mM Tris-Cl (pH 7.5), 150 mM NaCl. The fraction is concentrated by Centricon and subjected to column chromatography of Sephadex G200 (2×20 cm) equilibrated with 50 mM Tris-Cl (pH=7.5) containing 150 mM NaCl. The purified Pro-MMP9 is stored at −80° C. as a stock and the necessary amount of pro-form is used for activation. Pro-MMP9 is activated with 1 mM aminophenyl mercury acetate (APMA, ICN Pharmaceuticals) in 50 mM Tris-Cl (pH=7.5) containing 150 mM NaCl, 10 mM CaCl2 and 0.05% Brij-35 (MMP Assay Buffer) for 18 h at 37° C., and the APMA is removed by extensive dialysis against MMP Assay Buffer. […]
The activated MMP-9 (82 kDa) is then used to screen compounds. […] The increase of fluorescence is monitored at 460 nm with excitation at 355 nm. […]

T1 sequence (P14780 107-707 limits assumed): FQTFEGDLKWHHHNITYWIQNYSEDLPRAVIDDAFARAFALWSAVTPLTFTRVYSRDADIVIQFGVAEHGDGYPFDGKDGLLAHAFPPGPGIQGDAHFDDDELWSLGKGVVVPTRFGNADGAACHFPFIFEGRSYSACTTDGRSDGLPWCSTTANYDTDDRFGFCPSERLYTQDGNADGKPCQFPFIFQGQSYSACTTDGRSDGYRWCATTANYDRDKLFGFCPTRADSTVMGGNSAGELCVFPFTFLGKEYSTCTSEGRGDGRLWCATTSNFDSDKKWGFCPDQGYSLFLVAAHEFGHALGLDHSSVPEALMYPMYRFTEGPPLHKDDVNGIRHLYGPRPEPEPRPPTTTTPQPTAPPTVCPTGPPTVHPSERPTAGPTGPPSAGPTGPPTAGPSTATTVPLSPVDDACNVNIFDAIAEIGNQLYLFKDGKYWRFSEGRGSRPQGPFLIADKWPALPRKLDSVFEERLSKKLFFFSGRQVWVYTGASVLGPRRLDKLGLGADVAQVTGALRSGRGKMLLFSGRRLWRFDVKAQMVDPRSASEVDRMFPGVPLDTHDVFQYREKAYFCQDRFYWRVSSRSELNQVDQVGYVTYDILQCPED

- IC50: 2.57 ± 0.27 nM
SMILES: CN(C)c1ccc(CN(CC(=O)NO)S(=O)(=O)c2ccc(OCC3CC3)cc2)cc1 [Example 2, 2-[(4-Cyclopropylmethoxy-benzenesulfonyl)-(4-dimethylamino-benzyl-amino]-N-hydroxy-acetamide HCl salt]
